# Results as given in paper PMC6083370, “Influence of OATPs on Hepatic Disposition of Erlotinib Measured With Positron Emission Tomography” (Clinical Pharmacology and Therapeutics, 2017).
# Values joined by “and” are separate entries in the source; they are usually repeats but may differ in a detail not shown here. Identical values can stand only once. Like-named read-outs stand apart in the source and are kept apart here.
# Tests used:
# [1] = Plasma pharmacokinetics of unlabeled erlotinib after 300 mg oral dose (HPLC-UV); type: in vivo, human
# Method: One female and five male healthy volunteers (mean age: 27 ± 6 years, mean weight: 79 ± 7 kg) were enrolled in the study. […] Radioactivity in the upper abdominal region was measured over 90 min by employing a consecutive frame sequence of 1 × 15, 3 × 5, 3 × 10, 2 × 30, 3 × 60, 2 × 150, and 16 × 300 sec. […] For both PET scans, subjects were asked to fast for at least 6 h before radiotracer injection. Approximately 3 h before start of the second PET scan, an oral dose of 300 mg erlotinib (Tarceva, Roche Pharma, Nutley, NJ; two 150‐mg tablets) was administered. […] Blood samples were centrifuged to obtain plasma, which was kept at −80°C until analysis of erlotinib concentrations.
# Aliquots of blood and plasma were measured for radioactivity in a gamma‐counter, which was cross‐calibrated with the PET camera. […] The concentration of unlabeled erlotinib in plasma was determined by high‐performance liquid chromatography with ultraviolet detection (Supplementary Methods). Pharmacokinetic parameters of erlotinib in plasma were determined with the Kinetica 2000 software package, v. 3.0 (InnaPhase).
# The concentration of unlabeled erlotinib in plasma was determined by high-performance liquid chromatography (HPLC) using a Dionex UltiMate 3000 system (Dionex Corp., Sunnyvale, USA) with ultraviolet (UV) detection at 331 nm. After the addition of 600 µL ice-cold methanol to 200 µL of plasma, the samples were centrifuged (13,000 g for 5 min) and 80 µL of clear supernatant was injected onto a Hypersil BDS-C18 column (5 µm, 250 x 4.6 mm I.D., Thermo Fisher Scientific, Inc, Waltham, USA), preceded by a Hypersil BDS-C18 pre-column (5 µm, 10 x 4.6 mm I.D.) and kept at 40°C. The mobile phase consisted of a continuous gradient mixed from aqueous ammonium acetate buffer (10 mM, pH = 5.0) (solvent A) and acetonitrile (solvent B) at a flow rate of 1.0 mL/min.
# [2] = Tolerability of study medication in healthy volunteers; type: in vivo, human; details: microdose (<10 μg) i.v. and 300 mg oral
# Method: One female and five male healthy volunteers (mean age: 27 ± 6 years, mean weight: 79 ± 7 kg) were enrolled in the study. […] Radioactivity in the upper abdominal region was measured over 90 min by employing a consecutive frame sequence of 1 × 15, 3 × 5, 3 × 10, 2 × 30, 3 × 60, 2 × 150, and 16 × 300 sec. In parallel to PET imaging, serial blood samples were drawn from the radial artery for the first 2.5 min, followed by samples at 3.5, 5, 10, 20, 30, 40, 60, and 80 min after radiotracer injection. For both PET scans, subjects were asked to fast for at least 6 h before radiotracer injection. Approximately 3 h before start of the second PET scan, an oral dose of 300 mg erlotinib (Tarceva, Roche Pharma, Nutley, NJ; two 150‐mg tablets) was administered. Ten blood samples were collected at baseline and hourly for 8 h and at ∼21 h after erlotinib intake. Blood samples were centrifuged to obtain plasma, which was kept at −80°C until analysis of erlotinib concentrations.
# [3] = target: T1, OATP1B3 (SLCO1B3) (Homo sapiens, UniProt Q9NPD5); details: erlotinib 1 μM, cyclosporine A 10 μM, rifampicin 100 μM; 5 min
# T1 sequence (Q9NPD5 1-702): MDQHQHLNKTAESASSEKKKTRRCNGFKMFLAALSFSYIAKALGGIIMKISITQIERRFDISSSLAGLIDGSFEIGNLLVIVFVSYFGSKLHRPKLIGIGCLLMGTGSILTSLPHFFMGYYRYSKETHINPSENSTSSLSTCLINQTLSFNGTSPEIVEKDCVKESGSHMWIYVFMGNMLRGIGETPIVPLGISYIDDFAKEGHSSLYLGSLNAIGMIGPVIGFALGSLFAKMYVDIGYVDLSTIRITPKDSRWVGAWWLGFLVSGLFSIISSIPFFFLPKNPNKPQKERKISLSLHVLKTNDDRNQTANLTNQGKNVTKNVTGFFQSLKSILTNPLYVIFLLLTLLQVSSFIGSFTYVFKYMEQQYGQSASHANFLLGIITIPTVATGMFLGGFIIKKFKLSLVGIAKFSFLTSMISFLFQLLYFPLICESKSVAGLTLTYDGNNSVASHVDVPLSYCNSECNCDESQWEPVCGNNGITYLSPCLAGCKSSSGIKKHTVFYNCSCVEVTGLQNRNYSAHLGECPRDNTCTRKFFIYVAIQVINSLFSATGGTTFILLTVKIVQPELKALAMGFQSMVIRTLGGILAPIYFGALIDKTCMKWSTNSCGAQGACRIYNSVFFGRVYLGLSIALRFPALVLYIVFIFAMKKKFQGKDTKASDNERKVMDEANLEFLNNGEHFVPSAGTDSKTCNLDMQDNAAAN
# Method: A431 cells transfected with the empty vector were used as a negative control. All cell lines were cultured in Dulbecco's modified eagle medium supplemented with 10% fetal bovine serum, 2 mM L-glutamine, 100 units/mL penicillin and 100 µg/mL streptomycin. […] On the day of the experiment, growth medium was aspired and cells were washed with pre-warmed transport buffer (Hank's balanced salt solution supplemented with 10 mM N-2-hydroxyethylpiperazine-N-2-ethane sulfonic acid). […] Then the drug solutions were removed and cells were washed with pre-warmed transport buffer. […] For time dependency experiments, pre-warmed transport buffer was added and cells were incubated for 30 min. […] In all experiments, cell count was determined on separate 24-well tissue culture plates before or after each experiment. […] Each inhibition experiment was performed 2 times with 3 technical replicates each and radioactivity in cells was corrected for radioactive decay, normalized to 10^6 cells and expressed as percent of vector control (% control). The time dependency experiment was performed once with 3 technical replicates and radioactivity in cells was corrected for radioactive decay and expressed as percent of applied dose per 10^6 cells (%AD/10^6 cells). The concentration dependency experiment was performed once with 3 technical replicates and radioactivity in cells was corrected for radioactive decay. […]
# [4] = test system: OATP2B1; details: read-out: IC50 for OATP2B1 inhibition; cited from earlier work
# [5] = test system: OATP1B1; details: read-out: IC50 for inhibition of OATP1B1; cited from earlier work
# [6] = test system: OATP1B1; details: cited from earlier work
# [7] = test system: OCT1 (SLC22A1); set-up: method as in PMID 21088257; details: cited from earlier work
# [8] = test system: OAT2 (SLC22A7); set-up: method as in PMID 21088257; details: cited from earlier work
# [9] = test system: breast cancer resistance protein (BCRP/ABCG2); set-up: method as in PMID 20304939, PMID 21088257; details: cited from earlier work
# [10] = test system: P‐glycoprotein (Pgp/ABCB1); set-up: method as in PMID 20304939, PMID 21088257; details: cited from earlier work
# [11] = test system: organic anion transporter 3 (OAT3/SLC22A8); set-up: method as in PMID 20304939, PMID 21088257; details: cited from earlier work
# [12] = test system: organic cation transporter 2 (OCT2/SLC22A2); set-up: method as in PMID 20304939, PMID 21088257; details: cited from earlier work
# [13] = 3 h after oral dosing, individual subjects
# [14] = 4 h after oral dosing, individual subjects
# [15] = individual subjects, oral 300 mg
smiles,measurement,setting,value
C#Cc1cccc(Nc2ncnc3cc(OCCOC)c(OCCOC)cc23)c1 [erlotinib],"CPET, plasma concentration at time of the PET scan",[1]; [13],3.30 µM and 4.12 µM and 4.73 µM and 4.91 µM and 2.66 µM and 4.61 µM
same,"CPET,unbound",[1]; [13],"0.12 µM and 0.20 µM and 0.10, 0.10 µM and 0.28 µM"
same,"CPET, plasma concentration at time of the PET scan",[1]; [14],3.33 µM and 4.50 µM and 4.74 µM and 5.63 µM and 2.71 µM and 4.92 µM
same,"CPET,unbound",[1]; [14],"0.13 µM and 0.23 µM and 0.10, 0.10 µM and 0.30 µM"
same,Cmax,"[1]; both sexes, human, plasma, po, 300 mg, oral 300 mg, mean ± SD, read-out: Maximum plasma concentration (C max), mean",4.6 ± 1.3 µM
same,AUC0-∞,[1]; [15],68.1 µM·h and 94.0 µM·h and 72.0 µM·h and 102.8 µM·h and 36.6 µM·h and 187.8 µM·h
same,"T1/2, terminal elimination half-life",[1]; [15],14.1 h and 12.5 h and 9.2 h and 11.3 h and 5.4 h and 28.7 h
same,Tmax,[1]; [15],2 h and 6 h and 4 h
same,Cmax,"[1]; individual subjects, oral 300 mg, read-out: Cmax",3.51 µM and 5.03 µM and 4.74 µM and 6.43 µM and 2.83 µM and 4.92 µM
same,plasma concentration at the time of the PET scan,[1]; mean of values at 3 h and 4 h after oral intake of 300 mg,4.2 ± 1.0 µM
same,unbound plasma concentration at the time of the PET scan,"[1]; mean, oral 300 mg",0.18 µM
same,"time of C max, median",[1]; oral 300 mg,5 h
same,"time of C max, range",[1]; oral 300 mg,2 to 6 h
same,"tolerability, adverse events",[2],well tolerated by all subjects with no occurrence of adverse events
same,effect on [^11C]erlotinib uptake in OATP1B3 overexpressing cells,[3],no effect
same,IC50,[4],0.03 µM
same,IC50,[5],104 µM
same,transport by OATP1B1,[6],not to be transported
same,substrate of OCT1,[7],not a substrate
same,substrate of OAT2,[8],not a substrate
same,substrate of BCRP,[9],substrate
same,substrate of Pgp,[10],substrate
same,substrate of OAT3,[11],substrate
same,substrate of OCT2,[12],substrate
